Counter-ions that a name gives are not always drawn.
target: T1, HDAC6 (Homo sapiens, UniProt Q9UBN7); experiment: Biochemical HDAC6 inhibitory activity assay; settings: 10-dose IC50 mode, in singlet, 3-fold serial dilution starting at 1 μM; read-out: HDAC6 IC50
T1 sequence (Q9UBN7 1-1215): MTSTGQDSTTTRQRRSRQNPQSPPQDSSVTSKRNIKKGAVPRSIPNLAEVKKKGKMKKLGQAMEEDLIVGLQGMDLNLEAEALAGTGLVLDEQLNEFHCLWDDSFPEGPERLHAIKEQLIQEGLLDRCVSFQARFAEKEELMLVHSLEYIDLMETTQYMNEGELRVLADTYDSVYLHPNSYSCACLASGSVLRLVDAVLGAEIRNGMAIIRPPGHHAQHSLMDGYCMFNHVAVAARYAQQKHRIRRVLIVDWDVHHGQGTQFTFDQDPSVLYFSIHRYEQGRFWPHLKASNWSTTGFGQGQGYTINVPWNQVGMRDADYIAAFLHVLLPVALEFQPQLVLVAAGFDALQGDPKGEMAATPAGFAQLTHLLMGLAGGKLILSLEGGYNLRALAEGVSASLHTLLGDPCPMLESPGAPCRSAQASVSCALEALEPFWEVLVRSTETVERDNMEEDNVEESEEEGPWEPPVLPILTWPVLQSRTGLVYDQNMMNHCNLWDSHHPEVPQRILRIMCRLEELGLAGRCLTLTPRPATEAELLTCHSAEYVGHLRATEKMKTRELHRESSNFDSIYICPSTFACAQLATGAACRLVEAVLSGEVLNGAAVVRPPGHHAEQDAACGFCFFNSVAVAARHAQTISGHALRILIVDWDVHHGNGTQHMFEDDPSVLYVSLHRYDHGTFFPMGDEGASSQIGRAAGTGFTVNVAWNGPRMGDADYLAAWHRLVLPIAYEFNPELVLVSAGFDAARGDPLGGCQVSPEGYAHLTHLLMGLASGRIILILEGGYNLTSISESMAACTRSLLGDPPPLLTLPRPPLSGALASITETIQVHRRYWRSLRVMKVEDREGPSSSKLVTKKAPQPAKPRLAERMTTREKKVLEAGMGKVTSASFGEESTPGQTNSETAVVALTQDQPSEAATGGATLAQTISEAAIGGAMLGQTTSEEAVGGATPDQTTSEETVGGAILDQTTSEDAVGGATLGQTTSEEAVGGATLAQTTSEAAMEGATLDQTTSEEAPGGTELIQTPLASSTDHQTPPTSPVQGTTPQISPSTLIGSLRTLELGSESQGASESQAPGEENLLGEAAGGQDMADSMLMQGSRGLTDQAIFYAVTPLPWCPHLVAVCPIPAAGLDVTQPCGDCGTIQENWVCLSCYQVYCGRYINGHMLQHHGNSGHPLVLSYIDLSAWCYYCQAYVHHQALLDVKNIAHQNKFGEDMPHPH

| IC50 [nM] | Compound |
| --- | --- |
| 16 | C[C@H]1CN(Cc2ccc(Nc3nccc(-c4ccc(C(=O)NO)cc4)n3)cc2F)CCO1 [Compound I-15, (S)-4-(2-((3-fluoro-4-((2-methylmorpholino)methyl)phenyl)amino)pyrimidin-4-yl)-N-hydroxybenzamide] |

same assay, conditions: read-out: HDAC6 IC50

| Compound | IC50 [nM] |
| --- | --- |
| CC(c1ccc(Nc2nccc(-c3ccc(C(=O)NO)cc3)n2)cc1F)N1CCN(C)CC1 (stereo not drawn) [Compound I-10, 4-(2-((3-fluoro-4-(1-(4-methylpiperazin-1-yl)ethyl)phenyl)amino)pyrimidin-4-yl)-N-hydroxybenzamide] | < 1000 |
| CC1CCN(Cc2ccc(Nc3nccc(-c4ccc(C(=O)NO)cc4)n3)cc2F)CC1 [Compound I-6, 4-(2-((3-fluoro-4-((4-methylpiperidin-1-yl)methyl)phenyl)amino)pyrimidin-4-yl)-N-hydroxybenzamide] | < 1000 |
| Cc1cc(-c2ccnc(Nc3ccc(N4CCOC(C)C4)c(F)c3)n2)ccc1C(=O)NO (stereo not drawn) [Compound I-12, 4-(2-((3-fluoro-4-(2-methylmorpholino)phenyl)amino)pyrimidin-4-yl)-N-hydroxy-2-methylbenzamide] | 1000 to 10000 |
| O=C(NO)c1ccc(-c2ccnc(Nc3ccc(C(=O)N4CCOCC4)c(F)c3)n2)cc1 [Compound I-1, 4-(2-((3-fluoro-4-(morpholine-4-carbonyl)phenyl)amino)pyrimidin-4-yl)-N-hydroxybenzamide] | < 1000 |
| C[C@H]1CN(Cc2ccc(Nc3nccc(-c4ccc(C(=O)NO)cc4)n3)cc2F)CCO1 [Compound I-15, (S)-4-(2-((3-fluoro-4-((2-methylmorpholino)methyl)phenyl)amino)pyrimidin-4-yl)-N-hydroxybenzamide] | < 1000 |
| CCNNC(=O)c1ccc(-c2ccnc(Nc3ccc(C(=O)N4CCOCC4)c(F)c3)n2)cc1 [Compound I-18, N′-ethyl-4-(2-((3-fluoro-4-(morpholine-4-carbonyl)phenyl)amino)pyrimidin-4-yl)benzohydrazide] | < 1000 |
| CC1CN(c2ccc(Nc3nccc(-c4ccc(C(=O)NO)cc4)n3)cc2F)CCO1 (stereo not drawn) [Compound I-11, 4-(2-((3-fluoro-4-(2-methylmorpholino)phenyl)amino)pyrimidin-4-yl)-N-hydroxybenzamide] | < 1000 |
| N#CNC(=O)c1ccc(-c2ccnc(Nc3ccc(C(=O)N4CCOCC4)c(F)c3)n2)cc1 [Compound I-2, N-cyano-4-(2-((3-fluoro-4-(morpholine-4-carbonyl)phenyl)amino)pyrimidin-4-yl)benzamide] | > 100000 |
| O=C(NO)c1ccc(-c2nc(Nc3ccc(C(=O)N4CCOCC4)c(F)c3)ncc2Cl)cc1 [Compound I-17, 4-(5-chloro-2-((3-fluoro-4-(morpholine-4-carbonyl)phenyl)amino)pyrimidin-4-yl)-N-hydroxybenzamide] | < 1000 |
| CC1CN(C(C)c2ccc(Nc3nccc(-c4ccc(C(=O)NO)cc4)n3)cc2F)CCO1 (stereo not drawn) [Compound I-13, 4-(2-((3-fluoro-4-(1-(2-methylmorpholino)ethyl)phenyl)amino)pyrimidin-4-yl)-N-hydroxybenzamide] | < 1000 |
| CC1CCN(C(=O)c2ccc(Nc3nccc(-c4ccc(C(=O)NO)cc4)n3)cc2F)CC1 [Compound I-3, 4-(2-((3-fluoro-4-(4-methylpiperidine-1-carbonyl)phenyl)amino)pyrimidin-4-yl)-N-hydroxybenzamide] | < 1000 |
| CCNNC(=O)c1ccc(-c2ccnc(N3CCOCC3)n2)cc1 [Compound I-21, N′-ethyl-4-(2-morpholinopyrimidin-4-yl)benzohydrazide] | < 1000 |
| CCNNC(=O)c1ccc(-c2ccnc(Nc3ccc(C(=O)N4CCOCC4)cc3)n2)cc1 [Compound I-19, N′-ethyl-4-(2-((4-(morpholine-4-carbonyl)phenyl)amino)pyrimidin-4-yl)benzohydrazide] | < 1000 |
| CCNNC(=O)c1ccc(-c2ccnc(NC(=O)N3CCOCC3)n2)cc1 [Compound I-20, N-(4-(4-(2-ethylhydrazine-1-carbonyl)phenyl)pyrimidin-2-yl)morpholine-4-carboxamide] | 1000 to 10000 |
| CN1CCN(C(=O)c2ccc(Nc3nccc(-c4ccc(C(=O)NO)cc4)n3)cc2F)CC1 [Compound I-4, 4-(2-((3-fluoro-4-(4-methylpiperazine-1-carbonyl)phenyl)amino)pyrimidin-4-yl)-N-hydroxybenzamide] | < 1000 |
| CC1CN(CC(=O)Nc2nccc(-c3ccc(C(=O)NO)cc3)n2)CCO1 (stereo not drawn) [Compound I-14, N-hydroxy-4-(2-(2-(2-methylmorpholino)acetamido)pyrimidin-4-yl)benzamide] | < 1000 |

Continued, values first:

| IC50 [nM] | Compound |
| --- | --- |
| 1000 to 10000 | C[C@@H]1CN(c2ccc(Nc3nccc(-c4ccc(-c5nnc(C(F)F)o5)cn4)n3)cc2F)CCO1 [Compound I-39, (R)-4-(5-(5-(difluoromethyl)-1,3,4-oxadiazol-2-yl)pyridin-2-yl)-N-(3-fluoro-4-(2-methylmorpholino)phenyl)pyrimidin-2-amine] |
| 1000 to 10000 | C[C@H]1CN(Cc2ccc(Nc3nccc(-c4ccc(-c5nnc(C(F)F)o5)cc4)n3)cc2F)CCO1 [Compound I-30, (S)-4-(4-(5-(difluoromethyl)-1,3,4-oxadiazol-2-yl)phenyl)-N-(3-fluoro-4-((2-methylmorpholino)methyl)phenyl)pyrimidin-2-amine] |
| 1000 to 10000 | Fc1cc(Nc2nccc(-c3ccc(-c4nnc(C(F)F)o4)cn3)n2)ccc1N1CCOCC1 [Compound I-40, 4-(5-(5-(difluoromethyl)-1,3,4-oxadiazol-2-yl)pyridin-2-yl)-N-(3-fluoro-4-morpholinophenyl)pyrimidin-2-amine] |
| < 1000 | CCNNC(=O)c1ccc(-c2ccnc(N3CCC4(CC3)COC4)n2)cc1 [Compound I-23, 4-(2-(2-oxa-7-azaspiro[3.5]nonan-7-yl)pyrimidin-4-yl)-N′-ethylbenzohydrazide] |
| 10000 to 35000 | C[C@@H]1CN(Cc2ccc(Nc3nccc(-c4ccc(-c5nnc(C(F)F)o5)cn4)n3)cc2F)CCO1 [Compound I-35, (R)-4-(5-(5-(difluoromethyl)-1,3,4-oxadiazol-2-yl)pyridin-2-yl)-N-(3-fluoro-4-((2-methylmorpholino)methyl)phenyl)pyrimidin-2-amine] |
| > 100000 | CCNNC(=O)c1ccc(-c2nc(N3CCC4(CC3)COC4)ncc2Cl)cc1 [Compound I-24, 4-(5-chloro-2-(2-oxa-7-azaspiro[3.5]nonan-7-yl)pyrimidin-4-yl)-N′-ethylbenzohydrazide] |
| 1000 to 10000 | C[C@H]1CN(Cc2ccc(Nc3nccc(-c4ccc(-c5nnc(C(F)F)o5)cn4)n3)cc2F)CCO1 [Compound I-34, (S)-4-(5-(5-(difluoromethyl)-1,3,4-oxadiazol-2-yl)pyridin-2-yl)-N-(3-fluoro-4-((2-methylmorpholino)methyl)phenyl)pyrimidin-2-amine] |
| 1000 to 10000 | C[C@H]1CN(c2ccc(Nc3nccc(-c4ccc(-c5nnc(C(F)F)o5)cn4)n3)cc2F)CCO1 [Compound I-38, (S)-4-(5-(5-(difluoromethyl)-1,3,4-oxadiazol-2-yl)pyridin-2-yl)-N-(3-fluoro-4-(2-methylmorpholino)phenyl)pyrimidin-2-amine] |
| < 1000 | C[C@@H]1CN(Cc2ccc(Nc3nccc(-c4ccc(-c5nnc(C(F)F)o5)cc4F)n3)cc2F)CCO1 [Compound I-33, (R)-4-(4-(5-(difluoromethyl)-1,3,4-oxadiazol-2-yl)-2-fluorophenyl)-N-(3-fluoro-4-((2-methylmorpholino)methyl)phenyl)pyrimidin-2-amine] |
| 1000 to 10000 | C[C@H]1CN(Cc2ccc(-c3ccnc(Nc4ccc(-c5nnc(C(F)F)o5)cc4F)n3)c(F)c2)CCO1 [Compound I-36, (S)-N-(4-(5-(difluoromethyl)-1,3,4-oxadiazol-2-yl)-2-fluorophenyl)-4-(2-fluoro-4-((2-methylmorpholino)methyl)phenyl)pyrimidin-2-amine] |
| > 100000 | CCNNC(=O)c1ccc(-c2nc(N3CCOCC3)ncc2Cl)cc1 [Compound I-22, 4-(5-chloro-2-morpholinopyrimidin-4-yl)-N′-ethylbenzohydrazide] |
| 1000 to 10000 | C[C@@H]1CN(Cc2ccc(Nc3nccc(-c4ccc(-c5nnc(C(F)F)o5)cc4)n3)cc2F)CCO1 [Compound I-32, (R)-4-(4-(5-(difluoromethyl)-1,3,4-oxadiazol-2-yl)phenyl)-N-(3-fluoro-4-((2-methylmorpholino)methyl)phenyl)pyrimidin-2-amine TFA salt] |
| < 1000 | C[C@H]1CN(Cc2ccc(Nc3nccc(-c4ccc(-c5nnc(C(F)F)o5)cc4F)n3)cc2F)CCO1 [Compound I-31, (S)-4-(4-(5-(difluoromethyl)-1,3,4-oxadiazol-2-yl)-2-fluorophenyl)-N-(3-fluoro-4-((2-methylmorpholino)methyl)phenyl)pyrimidin-2-amine] |
